Assay: recombinant barcode read abundance after kanamycin selection (control-corrected) (log10(CPM+1)); higher = more efficient recombination; sequences stand for … in AGTGCAGAGAAAATCGGCCAGTTTTCTCTGCCTGCAGTCCGCATGCCGT…AGATTTATGCAGCGGACTGCCTTTCTCCCAAAGTGATAAACCGGACAGTATCATGGACCGGTTTTCCCGGTAATCCGTATTTGCAAGGTTGGTTTCACT; site = the 11-nt target
In short: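 In E. coli, a pooled library matched targets to IS621 bridge RNA target-binding loops and was introduced alongside a donor plasmid. Cells went onto chloramphenicol/ampicillin/kanamycin with 0.1 mM IPTG or onto chloramphenicol/ampicillin LB agar as control, in duplicate. Recombination efficiency, from recombinant-junction barcodes as counts per million, is averaged and control-corrected. It is reported as log10(CPM+1).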
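Further: IS621 recombinase and bridge RNA in Escherichia coli cells.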

TCTGACTCTTGGGTTCTAACCTGTTGCAT (site TCTGACTCTAT)
recombinant barcode read abundance (log10): 1.59

TCTGAGTCTTGGGTTCTAACCTGTTGCTG (site GCTGAGGCTCA)
recombinant barcode read abundance (log10): 0.141

TCTGAGTCTTGGGTTCTAACCTGTTGCTG (site TCTGAGTCTCA)
recombinant barcode read abundance (log10): 0.858

TCTGGAGCTTGGGTTCTAACCTGTTGCAG (site CCAGGAGCTCT)
recombinant barcode read abundance (log10): 0.0636

TCTGGAGCTTGGGTTCTAACCTGTTGCAG (site TCTGGAGCTCT)
recombinant barcode read abundance (log10): 0.938

TCTGGGGCTTGGGTTCTAACCTGTTGCCG (site TCTGGGGCTCA)
recombinant barcode read abundance (log10): 0.536

TCTGGGGCTTGGGTTCTAACCTGTTGCCG (site TCTGGGGCTCC)
recombinant barcode read abundance (log10): 1.44

TCTGGGGCTTGGGTTCTAACCTGTTGCCG (site TCTGGGGCTCG)
recombinant barcode read abundance (log10): 1.89

TCTGGGGCTTGGGTTCTAACCTGTTGCCG (site TCTGGGGCTCT)
recombinant barcode read abundance (log10): 0.618

TCTGGGGCTTGGGTTCTAACCTGTTGCTG (site TCTGGGGCTCA)
recombinant barcode read abundance (log10): 2.04

TCTGGGGCTTGGGTTCTAACCTGTTGCTG (site TCTGGGGCTCC)
recombinant barcode read abundance (log10): 0.216

TCTGGGGCTTGGGTTCTAACCTGTTGCTG (site TCTGGGGCTCG)
recombinant barcode read abundance (log10): 0.792

TCTGGGGCTTGGGTTCTAACCTGTTGCTG (site TCTGGGGCTCT)
recombinant barcode read abundance (log10): 0.936

TCTTAGGCTTGGGTTCTAACCTGTTGCGT (site TCCTAGGCTGC)
recombinant barcode read abundance (log10): 0.21

TCTTAGGCTTGGGTTCTAACCTGTTGCGT (site TCTTAGGCTAC)
recombinant barcode read abundance (log10): 1.63

TCTTATACTTGGGTTCTAACCTGTTGCGT (site TCTTATACTAC)
recombinant barcode read abundance (log10): 0.403

TCTTATACTTGGGTTCTAACCTGTTGCGT (site TCTTATACTAT)
recombinant barcode read abundance (log10): 0

TCTTATTCTTGGGTTCTAACCTGTTGCCT (site TCTGATTCTCG)
recombinant barcode read abundance (log10): 0.062

TCTTATTCTTGGGTTCTAACCTGTTGCCT (site TCTTATTCTAG)
recombinant barcode read abundance (log10): 0.0342

TCTTGGACTTGGGTTCTAACCTGTTGCTG (site TCTTGGACTAA)
recombinant barcode read abundance (log10): 0.159

TCTTGGACTTGGGTTCTAACCTGTTGCTG (site TCTTGGACTCA)
recombinant barcode read abundance (log10): 0.0828

TCTTGGACTTGGGTTCTAACCTGTTGCTG (site TCTTGGACTGA)
recombinant barcode read abundance (log10): 0.174

TCTTGGACTTGGGTTCTAACCTGTTGCTG (site TCTTGGACTTA)
recombinant barcode read abundance (log10): 0.0733

TCTTGTTCTTGGGTTCTAACCTGTTGCCT (site ACTTGTTCTAG)
recombinant barcode read abundance (log10): 0.383

TCTTGTTCTTGGGTTCTAACCTGTTGCCT (site CCTTGTTCTAG)
recombinant barcode read abundance (log10): 0.179

TCTTGTTCTTGGGTTCTAACCTGTTGCCT (site GCTTGTTCTAG)
recombinant barcode read abundance (log10): 0.0895

TCTTGTTCTTGGGTTCTAACCTGTTGCCT (site TCTTGTTCTAG)
recombinant barcode read abundance (log10): 0.145

TGAAATACTTGGGTTCTAACCTGTTGCCT (site TGAAATACTAG)
recombinant barcode read abundance (log10): 0.232

TGAAATACTTGGGTTCTAACCTGTTGCCT (site TGAACTACTAG)
recombinant barcode read abundance (log10): 0.0246

TGAAATACTTGGGTTCTAACCTGTTGCCT (site TGAAGTACTAG)
recombinant barcode read abundance (log10): 0

TGAAATACTTGGGTTCTAACCTGTTGCCT (site TGAATTACTAG)
recombinant barcode read abundance (log10): 0.00965

TGAAATGCTTGGGTTCTAACCTGTTGCCT (site TGAAATGCTAG)
recombinant barcode read abundance (log10): 0.329

TGAAATGCTTGGGTTCTAACCTGTTGCCT (site TGACATGCTAG)
recombinant barcode read abundance (log10): 0.0158

TGAAATGCTTGGGTTCTAACCTGTTGCCT (site TGAGATGCTAG)
recombinant barcode read abundance (log10): 0.256

TGAAATGCTTGGGTTCTAACCTGTTGCCT (site TGATATGCTAG)
recombinant barcode read abundance (log10): 0.288

TGAACGCCTTGGGTTCTAACCTGTTGCCT (site AGTACGCCTAG)
recombinant barcode read abundance (log10): 0.0861

TGAACGCCTTGGGTTCTAACCTGTTGCCT (site TGAACGCCTAG)
recombinant barcode read abundance (log10): 0.39

TGAACGTCTTGGGTTCTAACCTGTTGCCT (site TGAAAGTCTAG)
recombinant barcode read abundance (log10): 0.232

TGAACGTCTTGGGTTCTAACCTGTTGCCT (site TGAACGTCTAG)
recombinant barcode read abundance (log10): 0.384

TGAACGTCTTGGGTTCTAACCTGTTGCCT (site TGAAGGTCTAG)
recombinant barcode read abundance (log10): 0.0344

TGAACGTCTTGGGTTCTAACCTGTTGCCT (site TGAATGTCTAG)
recombinant barcode read abundance (log10): 0.378

TGAACTACTTGGGTTCTAACCTGTTGCCT (site TGAAATACTAG)
recombinant barcode read abundance (log10): 0.0445

TGAACTACTTGGGTTCTAACCTGTTGCCT (site TGAACTACTAG)
recombinant barcode read abundance (log10): 0.192

TGAACTACTTGGGTTCTAACCTGTTGCCT (site TGAAGTACTAG)
recombinant barcode read abundance (log10): 0.0835

TGAACTACTTGGGTTCTAACCTGTTGCCT (site TGAATTACTAG)
recombinant barcode read abundance (log10): 0.065

TGAAGTCCTTGGGTTCTAACCTGTTGCGG (site CGACGTCCTCC)
recombinant barcode read abundance (log10): 0.0219

TGAAGTCCTTGGGTTCTAACCTGTTGCGG (site TGAAGTCCTCC)
recombinant barcode read abundance (log10): 1.25

TGACAGGCTTGGGTTCTAACCTGTTGCAG (site GTACAGGCTCT)
recombinant barcode read abundance (log10): 0.278

TGACAGGCTTGGGTTCTAACCTGTTGCAG (site TGACAGGCTCT)
recombinant barcode read abundance (log10): 1.88

TGACCAGCTTGGGTTCTAACCTGTTGCCT (site TGACCAGCTAG)
recombinant barcode read abundance (log10): 1.05

TGACCAGCTTGGGTTCTAACCTGTTGCCT (site TGAGAAGCTAG)
recombinant barcode read abundance (log10): 0.0639

TGACCTTCTTGGGTTCTAACCTGTTGCCT (site TGACCTTCTAG)
recombinant barcode read abundance (log10): 0.526

TGACCTTCTTGGGTTCTAACCTGTTGCCT (site TGACGTTCTAG)
recombinant barcode read abundance (log10): 0.0226

TGACGCTCTTGGGTTCTAACCTGTTGCCT (site TGACGCTCTAG)
recombinant barcode read abundance (log10): 0.905

TGACGCTCTTGGGTTCTAACCTGTTGCCT (site TGCCGCTCTAG)
recombinant barcode read abundance (log10): 0.149

TGACGCTCTTGGGTTCTAACCTGTTGCCT (site TGGCGCTCTAG)
recombinant barcode read abundance (log10): 0.323

TGACGCTCTTGGGTTCTAACCTGTTGCCT (site TGTCGCTCTAG)
recombinant barcode read abundance (log10): 0.433

TGACTACCTTGGGTTCTAACCTGTTGCCT (site TCGCTACCTAG)
recombinant barcode read abundance (log10): 0.0696

TGACTACCTTGGGTTCTAACCTGTTGCCT (site TGACTACCTAG)
recombinant barcode read abundance (log10): 0.838

TGACTAGCTTGGGTTCTAACCTGTTGCCT (site TGACTAGCTAG)
recombinant barcode read abundance (log10): 0.176

TGACTAGCTTGGGTTCTAACCTGTTGCCT (site TGCCTAGCTAG)
recombinant barcode read abundance (log10): 0.03

TGACTAGCTTGGGTTCTAACCTGTTGCCT (site TGGCTAGCTAG)
recombinant barcode read abundance (log10): 0.0206

TGACTAGCTTGGGTTCTAACCTGTTGCCT (site TGTCTAGCTAG)
recombinant barcode read abundance (log10): 0.0443

TGAGAACCTTGGGTTCTAACCTGTTGCCT (site AGAGAACCTAG)
recombinant barcode read abundance (log10): 0.666

TGAGAACCTTGGGTTCTAACCTGTTGCCT (site CGAGAACCTAG)
recombinant barcode read abundance (log10): 0.486

TGAGAACCTTGGGTTCTAACCTGTTGCCT (site GGAGAACCTAG)
recombinant barcode read abundance (log10): 0.118

TGAGAACCTTGGGTTCTAACCTGTTGCCT (site TGAGAACCTAG)
recombinant barcode read abundance (log10): 2.33

TGAGAGGCTTGGGTTCTAACCTGTTGCCT (site TGAGAGGCTAG)
recombinant barcode read abundance (log10): 0.718

TGAGAGGCTTGGGTTCTAACCTGTTGCCT (site TGAGCGGCTAG)
recombinant barcode read abundance (log10): 0.173

TGAGAGGCTTGGGTTCTAACCTGTTGCCT (site TGAGGGGCTAG)
recombinant barcode read abundance (log10): 0.361

TGAGAGGCTTGGGTTCTAACCTGTTGCCT (site TGAGTGGCTAG)
recombinant barcode read abundance (log10): 0.638

TGAGTCCCTTGGGTTCTAACCTGTTGCCT (site TGAGTCCCTAG)
recombinant barcode read abundance (log10): 2.03

TGAGTCCCTTGGGTTCTAACCTGTTGCCT (site TGCGTCCCTAG)
recombinant barcode read abundance (log10): 0.201

TGAGTCCCTTGGGTTCTAACCTGTTGCCT (site TGGGTCCCTAG)
recombinant barcode read abundance (log10): 0.444

TGAGTCCCTTGGGTTCTAACCTGTTGCCT (site TGTGTCCCTAG)
recombinant barcode read abundance (log10): 0.523

TGATATGCTTGGGTTCTAACCTGTTGCCT (site TGAAATGCTAG)
recombinant barcode read abundance (log10): 0.322

TGATATGCTTGGGTTCTAACCTGTTGCCT (site TGACATGCTAG)
recombinant barcode read abundance (log10): 0.347

TGATATGCTTGGGTTCTAACCTGTTGCCT (site TGAGATGCTAG)
recombinant barcode read abundance (log10): 0.0846

TGATATGCTTGGGTTCTAACCTGTTGCCT (site TGATATGCTAG)
recombinant barcode read abundance (log10): 0.463

TGATTGACTTGGGTTCTAACCTGTTGCTT (site GATGCACCTCC)
recombinant barcode read abundance (log10): 0.194

TGATTGACTTGGGTTCTAACCTGTTGCTT (site TGATTGACTAA)
recombinant barcode read abundance (log10): 0.0769

TGCATAGCTTGGGTTCTAACCTGTTGCCA (site CTTGCGACTAA)
recombinant barcode read abundance (log10): 0.068

TGCATAGCTTGGGTTCTAACCTGTTGCCA (site TGCATAGCTTG)
recombinant barcode read abundance (log10): 0.0795

TGCCACCCTTGGGTTCTAACCTGTTGCGT (site TACTACCCTAC)
recombinant barcode read abundance (log10): 0.0993

TGCCACCCTTGGGTTCTAACCTGTTGCGT (site TGCCACCCTAC)
recombinant barcode read abundance (log10): 2.14

TGCCCCGCTTGGGTTCTAACCTGTTGCCT (site ACTTAGTCTGA)
recombinant barcode read abundance (log10): 0.341
